Experimental data taken from patent publication US9617283B2, “Bicyclic heterocycle compounds and their uses in therapy” (ASTEX THERAPEUTICS LIMITED, priority 2012, dated 2017).
Structures can show the parent of a compound that is named as a salt. Where two headings read alike, the source gives them in different places.

Assays:
[1] = test system: EVSA-T (human breast carcinoma); assay: Anti-proliferative activity, Alamar Blue assay, EVSA-T; format: cell-based
[2] = molecular target: T1, BIR3 domain of human XIAP (residues 252-350) (Homo sapiens, UniProt P98170); assay: XIAP in vitro competitive displacement binding assay (fluorescence polarization); details: 1 h, percent inhibition (PI) at 0.04 μM; read-out: Xiap IC50 or PI μM
T1 construct: BIR3 domain of human XIAP (residues 252-350); His-tag (cleaved yes); made in house; host or cells: Escherichia coli
T1 sequence (P98170 252-350): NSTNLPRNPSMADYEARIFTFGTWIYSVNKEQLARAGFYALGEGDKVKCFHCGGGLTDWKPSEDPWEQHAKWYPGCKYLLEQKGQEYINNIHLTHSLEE

[3] = Homo sapiens, EVSA-T, 72 h, EVSA-T cell line, 72 hours, Alamar Blue; read-out: EVSA-T prolif
[4] = Homo sapiens, EVSA-T; read-out: EC50 in EVSA-T cell line assays

| SMILES | EC50 [1, 3] | EC50 [1, 4] | inhibition at 0.04 µM [2] | EC50 ([1]; Homo sapiens, EVSA-T, read-out: EC50 in EVSA-T cell line assays) |
| --- | --- | --- | --- | --- |
| CCCC(F)(F)c1cc2c(cn1)C(C)(C)CN2C(=O)CN1C[C@@H](C)NC[C@@H]1CN1C[C@@H](C)CC1=O [Example 75, (4S)-1-{[(2R,5R)-1-{2-[6-(1,1-Difluorobutyl)-3,3-dimethyl-1H,2H,3H-pyrrolo[3,2-c]pyridin-1-yl]-2-oxoethyl}-5-methylpiperazin-2-yl]methyl}-4-methylpyrrolidin-2-one dihydrochloride] | 14 nM | < 1000 nM | 75% |  |
| C[C@@H]1CN(CC(=O)N2CC(C)(C)c3cnc(Cc4ccc(F)cc4F)cc32)[C@@H](CN2Cc3ccccc3C2=O)CN1 [Example 77, 2-{[(2R,5R)-1-(2-{6-[(2,4-Difluorophenyl)methyl]-3,3-dimethyl-1H,2H,3H-pyrrolo[3,2-c]pyridin-1-yl}-2-oxoethyl)-5-methylpiperazin-2-yl]methyl}-2,3-dihydro-1H-isoindol-1-one dihydrochloride] | 0.17 nM | < 1000 nM | 90% |  |
| CCCC(F)(F)c1cc2c(cn1)C(C)(C)CN2C(=O)CN1C[C@@H](C)NC[C@@H]1CN1Cc2ccncc2C1=O [Example 78, 2-{[(2R,5R)-1-{2-[6-(1,1-Difluorobutyl)-3,3-dimethyl-1H,2H,3H-pyrrolo[3,2-c]pyridin-1-yl]-2-oxoethyl}-5-methylpiperazin-2-yl]methyl}-1H,2H,3H-pyrrolo[3,4-c]pyridin-3-one dihydrochloride] | 3.4 nM | < 1000 nM | 64% |  |
| C[C@@H]1CN(CC(=O)N2CC(C)(C)c3cnc(Cc4ccc(F)cc4F)cc32)[C@@H](CN2C[C@H](C)N(C)CC2=O)CN1 [Example 81, (5S)-1-{[(2R,5R)-1-(2-{6-[(2,4-Difluorophenyl)methyl]-3,3-dimethyl-1H,2H,3H-pyrrolo[3,2-c]pyridin-1-yl}-2-oxoethyl)-5-methylpiperazin-2-yl]methyl}-4,5-dimethylpiperazin-2-one dihydrochloride] | 2.8 nM | < 1000 nM | 52% |  |
| C[C@@H]1CN(CC(=O)N2CC(C)(C)c3ncc([C@H](O)c4ccc(F)cc4)cc32)[C@@H](CN2Cc3ccccc3C2=O)CN1 [Example 84, 2-{[(2R,5R)-1-(2-{6-[(R)-(4-Fluorophenyl)(hydroxy)methyl]-3,3-dimethyl-1H,2H,3H-pyrrolo[3,2-b]pyridin-1-yl}-2-oxoethyl)-5-methylpiperazin-2-yl]methyl}-2,3-dihydro-1H-isoindol-1-one dihydrochloride] | 150 nM | < 1000 nM | 51% |  |
| C[C@@H]1CN(CC(=O)N2CC(C)(C)c3cnc(Cc4ccc(F)cc4F)cc32)[C@@H](CN2C[C@@H](C)N(C)CC2=O)CN1 [Example 85, (5R)-1-{[(2R,5R)-1-(2-{6-[(2,4-Difluorophenyl)methyl]-3,3-dimethyl-1H,2H,3H-pyrrolo[3,2-c]pyridin-1-yl}-2-oxoethyl)-5-methylpiperazin-2-yl]methyl}-4,5-dimethylpiperazin-2-one dihydrochloride] | 4.5 nM | < 1000 nM | 45% |  |
| COc1ccc2c(c1)CN(C[C@H]1CN[C@H](C)CN1CC(=O)N1CC(C)(C)c3cnc(Cc4ccc(F)cc4)cc31)C2=O [Example 92, 2-{[(2R,5R)-1-(2-{6-[(4-Fluorophenyl)methyl]-3,3-dimethyl-1H,2H,3H-pyrrolo[3,2-c]pyridin-1-yl}-2-oxoethyl)-5-methylpiperazin-2-yl]methyl}-5-methoxy-2,3-dihydro-1H-isoindol-1-one dihydrochloride] | 0.26 nM | < 1000 nM | 93% |  |
| C[C@@H]1CN(CC(=O)N2CC(C)(C)c3ncc([C@@H](O)c4ccc(F)cc4)cc32)[C@@H](CN2Cc3ccccc3C2=O)CN1 [Example 96, 2-{[(2R,5R)-1-(2-{6-[(S)-(4-Fluorophenyl)(hydroxy)methyl]-3,3-dimethyl-1H,2H,3H-pyrrolo[3,2-b]pyridin-1-yl}-2-oxoethyl)-5-methylpiperazin-2-yl]methyl}-2,3-dihydro-1H-isoindol-1-one] | 31 nM | < 1000 nM | 62% |  |
| C[C@@H]1CN(CC(=O)N2CC(C)(C)c3ncc(Cc4ccc(F)cc4F)cc32)[C@@H](CN2C[C@H](C)N(C)CC2=O)CN1 [Example 98, (5S)-1-{[(2R,5R)-1-(2-{6-[(2,4-Difluorophenyl)methyl]-3,3-dimethyl-1H,2H,3H-pyrrolo[3,2-b]pyridin-1-yl}-2-oxoethyl)-5-methylpiperazin-2-yl]methyl}-4,5-dimethylpiperazin-2-one dihydrochloride] | 3.5 nM | < 1000 nM | 39% |  |
| CCCC(F)(F)c1cc2c(nn1)C(C)(C)CN2C(=O)CN1C[C@@H](C)NC[C@@H]1CN1Cc2ccc(F)cc2C1=O [Example 99, 2-{[(2R,5R)-1-{2-[3-(1,1-Difluorobutyl)-7,7-dimethyl-5H,6H,7H-pyrrolo[3,2-c]pyridazin-5-yl]-2-oxoethyl}-5-methylpiperazin-2-yl]methyl}-6-fluoro-2,3-dihydro-1H-isoindol-1-one dihydrochloride] | 6.6 nM | < 1000 nM | 65% |  |
| C[C@@H]1CN(CC(=O)N2CC(C)(C)c3ncc(Cc4ccc(F)cc4F)cc32)[C@@H](CN2C(=O)CO[C@@H](C)[C@H]2C)CN1 [Example 100, (5R,6S)-4-{[(2R,5R)-1-(2-{6-[(2,4-Difluorophenyl)methyl]-3,3-dimethyl-1H,2H,3H-pyrrolo[3,2-b]pyridin-1-yl}-2-oxoethyl)-5-methylpiperazin-2-yl]methyl}-5,6-dimethylmorpholin-3-one dihydrochloride] | 1.9 nM | < 1000 nM | 41% |  |
| COC[C@@H]1CN(C[C@H]2CN[C@H](C)CN2CC(=O)N2CC(C)(C)c3ncc(Cc4ccc(F)cc4)cc32)C(=O)CO1 [Example 102, (6S)-4-{[(2R,5R)-1-(2-{6-[(4-Fluorophenyl)methyl]-3,3-dimethyl-1H,2H,3H-pyrrolo[3,2-b]pyridin-1-yl}-2-oxoethyl)-5-methylpiperazin-2-yl]methyl}-6-(methoxymethyl)morpholin-3-one dihydrochloride] | 6.9 nM |  | 51% | < 1000 nM |
| C[C@@H]1CN(CC(=O)N2CC(C)(C)c3ncc(Cc4ccc(F)cc4F)cc32)[C@@H](CN2Cc3cc(O)ccc3C2=O)CN1 [Example 105, 2-{[(2R,5R)-1-(2-{6-[(2,4-Difluorophenyl)methyl]-3,3-dimethyl-1H,2H,3H-pyrrolo[3,2-b]pyridin-1-yl}-2-oxoethyl)-5-methylpiperazin-2-yl]methyl}-5-hydroxy-2,3-dihydro-1H-isoindol-1-one dihydrochloride] | 6.5 nM | < 1000 nM | 90% |  |
| C[C@@H]1CN(CC(=O)N2CC(C)(C)c3ncc(Cc4ccc(F)cc4F)cc32)[C@@H](CN2Cc3cc(C#N)ccc3C2=O)CN1 [Example 106, 2-{[(2R,5R)-1-(2-{6-[(2,4-Difluorophenyl)methyl]-3,3-dimethyl-1H,2H,3H-pyrrolo[3,2-b]pyridin-1-yl}-2-oxoethyl)-5-methylpiperazin-2-yl]methyl}-1-oxo-2,3-dihydro-1H-isoindole-5-carbonitrile dihydrochloride] | 2.1 nM | < 1000 nM | 90% |  |
| C[C@@H]1CN(CC(=O)N2CC(C)(C)c3cnc(Cc4ccc(F)cc4)cc32)[C@@H](CN2C[C@H](C)N(C)CC2=O)CN1 [Example 107, (5S)-1-{[(2R,5R)-1-(2-{6-[(4-Fluorophenyl)methyl]-3,3-dimethyl-1H,2H,3H-pyrrolo[3,2-c]pyridin-1-yl}-2-oxoethyl)-5-methylpiperazin-2-yl]methyl}-4,5-dimethylpiperazin-2-one dihydrochloride] | 11 nM | < 1000 nM | 67% |  |
| C[C@@H]1CN(CC(=O)N2CC(C)(C)c3nnc(Cc4ccc(F)cc4F)cc32)[C@@H](CN2Cc3cc(O)ccc3C2=O)CN1 [Example 108, 2-{[(2R,5R)-1-(2-{3-[(2,4-Difluorophenyl)methyl]-7,7-dimethyl-5H,6H,7H-pyrrolo[3,2-c]pyridazin-5-yl}-2-oxoethyl)-5-methylpiperazin-2-yl]methyl}-5-hydroxy-2,3-dihydro-1H-isoindol-1-one dihydrochloride] | 11 nM | < 1000 nM | 88% |  |
| C[C@@H]1CN(CC(=O)N2CC(C)(C)c3ncc(Cc4ccc(F)cc4F)cc32)[C@@H](CN2Cc3ccc(C#N)cc3C2=O)CN1 [Example 112, 2-{[(2R,5R)-1-(2-{6-[(2,4-Difluorophenyl)methyl]-3,3-dimethyl-1H,2H,3H-pyrrolo[3,2-b]pyridin-1-yl}-2-oxoethyl)-5-methylpiperazin-2-yl]methyl}-3-oxo-2,3-dihydro-1H-isoindole-5-carbonitrile dihydrochloride] | 2.7 nM | < 1000 nM | 85% |  |
| C[C@@H]1CN(CC(=O)N2CC(C)(C)c3nnc(Cc4ccc(F)cc4F)cc32)[C@@H](CN2Cc3cccc(F)c3C2=O)CN1 [Example 113, 2-{[(2R,5R)-1-(2-{3-[(2,4-Difluorophenyl)methyl]-7,7-dimethyl-5H,6H,7H-pyrrolo[3,2-c]pyridazin-5-yl}-2-oxoethyl)-5-methylpiperazin-2-yl]methyl}-7-fluoro-2,3-dihydro-1H-issoindol-1-one dihydrochloride] | 0.62 nM | < 1000 nM | 69% |  |
| C[C@@H]1CN(CC(=O)N2CC(C)(C)c3ncc(Cc4ccc(F)cc4F)cc32)[C@@H](CN2Cc3c(O)cccc3C2=O)CN1 [Example 118, 2-{[(2R,5R)-1-(2-{6-[(2,4-Difluorophenyl)methyl]-3,3-dimethyl-1H,2H,3H-pyrrolo[3,2-b]pyridin-1-yl}-2-oxoethyl)-5-methylpiperazin-2-yl]methyl}-4-hydroxy-2,3-dihydro-1H-isoindol-1-one dihydrochloride] | 6.4 nM | < 1000 nM | 72% |  |
